We go through 1 compound from US20120065165A1, “COMPOSITIONS AND METHODS OF TREATING ENDOTHELIAL DISORDERS” (ARGINETIX, INC, priority 2008, published 2012).

Molecules are shown by their SMILES.

This assay relates to tissue explants from diabetic ZDF rats. Briefly: Ex vivo ABH treatment of tissue explants from type 2 diabetic ZDF rats (Example 6). Type of assay: cell-based, rat. Particulars: vs ZLC rats. From the text: Biochemical and functional parameters of endothelial functions in a model of type 2 diabetes (Zucker Diabetic Fatty (ZDF) Rats) and in a control rat strain (Zucker Lean Control (ZLC) rat), are used to investigate the ex vivo effectiveness of ABH in improving these parameters. Vascular arginase activity and its role in the development of diabetic endothelial pathology have been previously characterized in models of Type 1 diabetes (Jelodar, et al., 2007 J. Reprod. Dev. 53: 317-321; Romero, et al., 2008 Circ. Res. 102: 95-102). […] Vascular endothelial function is measured using organ chambers in isolated rat arterial rings and in strips of erectile tissue collected from each rat strain.
ZDF rats have a mutation in the gene for the leptin receptor. […] Arginase I and II and eNOS mRNA and protein concentrations in these tissues are determined by RT-PCR and Western blot, respectively. Arginase activity is measured, as described in Example 4, by homogenizing the rat vessels in lysis buffer, removing cellular debris by centrifugation, and monitoring the hydrolysis of L-arginine using calorimetric determination of urea after the addition of isonitrosopropiophenone. […] The cellular location of arginase in this model of type 2 diabetes is determined by comparing the results of RT-PCR, Western blot, and arginase activity assays in endothelial-intact and endothelial-denuded aortic rings. […]

Regarding `N[C@@H](CCCCB(O)O)C(=O)O` [ABH, 2(S)-Amino-6-boronohexanoic acid], the “biochemical (arginase activity, NO, ROS) and functional (vascular endothelial, erectile) parameters” value is “return these biochemical and functional parameters to values that are similar to those of ZLC rats”.
